Experimental data from article PMC6737244, “Cathelicidin Peptides Restrict Bacterial Growth via Membrane Perturbation and Induction of Reactive Oxygen Species” (mBio, 2019).
Ends that are not written are not given here.

What was measured:
V. cholerae = test: Survival (CFU) with B22 with or without ROS scavengers or SodA
Method: The membrane-permeable iron chelating agent 2,2′-dipyridyl (DP) efficiently chelates free Fe^2+ and the scavenger thiourea (TU) directly quenches hydroxyl radicals generated by the Fenton reaction.
To inhibit Fenton chemistry in the cytoplasm, cells were pretreated with 75 μM concentration of the membrane-permeable agent 2,2′-dipyridyl (DP), which efficiently chelates free Fe^2+, and 150 μM concentration of the scavenger thiourea (TU), which directly quenches Fenton-generated hydroxyl radicals ([50]). These concentrations of DP and TU were confirmed not to affect bacterial growth.

Vibrio cholerae AC53 = type: cell-based; settings: CAMHB, 16 to 18 h, at least three independent assays
Method: (§1) MICs were determined by using the broth microdilution method based on the general recommendations of the Clinical and Laboratory Standards Institute (CLSI). Bacteria were grown in CAMHB overnight. They were then diluted into fresh medium the following morning and grown to early log phase. The cultures were then diluted to approximately 5 × 10^5 CFU ml^−1, and 100 μl was added to sterile 96-well polypropylene microtiter plates (Corning, NY, USA) preloaded with twofold dilutions of antimicrobial peptides. […] All MIC assays were determined from at least three independent assays.

Vibrio cholerae C6075 = type: cell-based; settings: CAMHB, 16 to 18 h, at least three independent assays
Method: as §1

[1] = tested on: Escherichia coli J53 AzideR; type: cell-based; settings: CAMHB, 16 to 18 h, at least three independent assays
Method: as §1

E. coli UTI89 = test: Differential gene expression after peptide exposure; type: cell-based, Escherichia coli; settings: 30 nM, 5-min exposure
Method: To determine the mechanism by which sublethal concentrations of cathelicidins affect bacterial cell physiology, we sought to analyze gene expression prior to and after a 5-min exposure to 30 nM B22a. The chromosomal integron of V. cholerae contains hundreds of repeats and horizontally acquired genes of unknown function ([20][–][23]). Moreover, many of these genes are duplicated, which can further complicate interpreting gene expression patterns. We elected to examine peptide-induced expression changes in E. coli to simplify gene identification and assignment of potential functions. Significant changes in expression were identified for genes whose products participate in global processes such as protein synthesis, protein folding, protein secretion, intracellular pH, membrane modification, c-di-GMP production, peptidoglycan biosynthesis, respiration, and detoxification of reactive oxygen species (ROS) (Table 2). Perturbation of peptidoglycan synthesis was consistent with the membrane blebbing we observed following B22 and B22a treatment. Other notable changes included arnF, the product of which modifies the lipid A moiety of lipopolysaccharide (LPS) with 4-amino-4-deoxy-L-arabinose (L-Ara4N) to confer resistance to polymyxin and cationic antimicrobial peptides in E. coli and Salmonella enterica serotype Typhimurium ([24], [25]). c-di-GMP-dependent Psl exopolysaccharide production is part of the first line of defense against reactive oxygen species in P. aeruginosa ([26]). The respiratory chain is a major source of periplasmic ROS such as superoxide (O2^−) and hydrogen peroxide (H2O2) ([27]), and cytosolic flavoenzymes such as fumarate reductase (Frd) can generate O2^−, H2O2, and hydroxyl radical (^·OH) that damages membrane lipids, DNA, and proteins. ArcA is important for regulating bacterial resistance to ROS under aerobic conditions, and OxyR directly senses H2O2 to induce expression of a slew of genes, including ahpC and gshA, to counter H2O2 accumulation ([28], [29]).

V. cholerae biofilms = test: Established biofilm in flow cell, LIVE/DEAD staining

FRKKLKKLFKKLSPVIPLLKLG [B22] was tested, and the “Killing of V. cholerae overproducing SodA” value (V. cholerae; 2.5 μM B22) was “completely suppressed”, the “Decrease in survival of V. cholerae overexpressing SodA” value (V. cholerae; 5 μM B22) was 10 fold and the Decrease in survival (V. cholerae; V. cholerae, 2.5 μM B22) was 3 log10 units. For the same substance, the “Increase in survival by preincubation with 75 μM DP and 150 mM TU in combination” value (V. cholerae; V. cholerae, prior to addition of B22) was 13 fold.
FRKKLKKLFKKLSPVIPLLKLG-NH2 [B22a] showed an MIC (Vibrio cholerae AC53) of 4 µM, an MIC (Vibrio cholerae C6075) of 4 µM and an MIC [1] of 2 µM. For the same substance, the “Log2 fold change, ahpC (UTI89_C0608)” value (E. coli UTI89) was −1.35, the “Log2 fold change, ansB (UTI89_C3346)” value (E. coli UTI89) was −3.26 and the “Log2 fold change, arcA (UTI89_C5174)” value (E. coli UTI89) was −1.55. The “Log2 fold change, ardB (UTI89_C2011)” value (E. coli UTI89) was −1.39, the “Log2 fold change, arnF (yfbJ) (UTI89_C2541)” value (E. coli UTI89) was 1.44 and the “Log2 fold change, arrD (UTI89_C1304)” value (E. coli UTI89) was 2.56. For the same substance, the “Log2 fold change, asnA (UTI89_C4299)” value (E. coli UTI89) was −1.38, the “Log2 fold change, asnS (UTI89_C1002)” value (E. coli UTI89) was −1.19 and the “Log2 fold change, aspA (UTI89_C4736)” value (E. coli UTI89) was −2.31. The “Log2 fold change, ccmH (UTI89_C2472)” value (E. coli UTI89) was −1.19, the “Log2 fold change, citB (UTI89_C0624)” value (E. coli UTI89) was −2.71 and the “Log2 fold change, cspA (UTI89_C4097)” value (E. coli UTI89) was 1.44. For the same substance, the “Log2 fold change, cspG (UTI89_C1051)” value (E. coli UTI89) was 1.67, the “Log2 fold change, cybC (UTI89_C4840)” value (E. coli UTI89) was −2.73 and the “Log2 fold change, cyoD (UTI89_C0453)” value (E. coli UTI89) was 1.80. The “Log2 fold change, cysM (UTI89_C2754)” value (E. coli UTI89) was −2.60, the “Log2 fold change, dapC (UTI89_C3862)” value (E. coli UTI89) was −1.97 and the “Log2 fold change, dcuA (UTI89_C4735)” value (E. coli UTI89) was −2.63. The “Log2 fold change, dgkA (UTI89_C4612)” value (E. coli UTI89) was −1.71, the “Log2 fold change, eno (UTI89_C3148)” value (E. coli UTI89) was −2.02 and the “Log2 fold change, evgS (UTI89_C2702)” value (E. coli UTI89) was 1.30. For the same substance, the “Log2 fold change, fabA (UTI89_C1019)” value (E. coli UTI89) was −1.48, the “Log2 fold change, fdoG (UTI89_C4481)” value (E. coli UTI89) was 1.13 and the “Log2 fold change, fimX (UTI89_C0338)” value (E. coli UTI89) was 1.57. The “Log2 fold change, frdA (UTI89_C4754)” value (E. coli UTI89) was −1.78, the “Log2 fold change, frdB (UTI89_C4753)” value (E. coli UTI89) was −2.97 and the “Log2 fold change, fusA (UTI89_C3842)” value (E. coli UTI89) was −1.22. For the same substance, the “Log2 fold change, gadX (UTI89_C4048)” value (E. coli UTI89) was 1.74, the “Log2 fold change, gapA (UTI89_C1975)” value (E. coli UTI89) was −2.34 and the “Log2 fold change, gmhB (UTI89_C0216)” value (E. coli UTI89) was −2.02. The “Log2 fold change, gnd (UTI89_C2302)” value (E. coli UTI89) was −1.41, the “Log2 fold change, gshA (UTI89_C3050)” value (E. coli UTI89) was −1.92 and the “Log2 fold change, gsk (UTI89_C0505)” value (E. coli UTI89) was 1.20. The “Log2 fold change, holE (UTI89_C2044)” value (E. coli UTI89) was 2.85, the “Log2 fold change, hslJ (UTI89_C1622)” value (E. coli UTI89) was −1.15 and the “Log2 fold change, manY (UTI89_C2016)” value (E. coli UTI89) was −1.16. The “Log2 fold change, marR (UTI89_C1833)” value (E. coli UTI89) was 1.29, the “Log2 fold change, mcbR (UTI89_C1669)” value (E. coli UTI89) was 2.96 and the “Log2 fold change, mdoG (UTI89_C1172)” value (E. coli UTI89) was 1.63. The “Log2 fold change, mrcB (UTI89_C0165)” value (E. coli UTI89) was 1.85, the “Log2 fold change, mrp (UTI89_C2387)” value (E. coli UTI89) was −1.64 and the “Log2 fold change, mtgA (UTI89_C3644)” value (E. coli UTI89) was 1.90. For the same substance, the “Log2 fold change, napC (UTI89_C2480)” value (E. coli UTI89) was −2.52, the “Log2 fold change, narP (UTI89_C2471)” value (E. coli UTI89) was −2.02 and the “Log2 fold change, ompC (UTI89_C2497)” value (E. coli UTI89) was −1.11. For the same substance, the “Log2 fold change, ompT (UTI89_C0566)” value (E. coli UTI89) was 1.11, the “Log2 fold change, orf (UTI89_C0124)” value (E. coli UTI89) was 1.89 and the “Log2 fold change, orf (UTI89_C1095)” value (E. coli UTI89) was 1.47. For the same substance, the “Log2 fold change, orf (UTI89_C1152)” value (E. coli UTI89) was 1.40, the “Log2 fold change, orf (UTI89_C1286)” value (E. coli UTI89) was 1.09 and the “Log2 fold change, orf (UTI89_C3928)” value (E. coli UTI89) was 1.10. For the same substance, the “Log2 fold change, orf (UTI89_C4380)” value (E. coli UTI89) was −1.48, the “Log2 fold change, oxyR (UTI89_C4554)” value (E. coli UTI89) was 1.11 and the “Log2 fold change, pflB (UTI89_C0974)” value (E. coli UTI89) was −2.71. For the same substance, the “Log2 fold change, ptsK (UTI89_C2748)” value (E. coli UTI89) was −1.06, the “Log2 fold change, rpmE (UTI89_C4521)” value (E. coli UTI89) was 1.08 and the “Log2 fold change, rtcA (UTI89_C3920)” value (E. coli UTI89) was −2.90. For the same substance, the “Log2 fold change, sdaB (UTI89_C3168)” value (E. coli UTI89) was −3.16, the “Log2 fold change, sdaC (UTI89_C3167)” value (E. coli UTI89) was −2.21 and the “Log2 fold change, secB (UTI89_C4151)” value (E. coli UTI89) was −2.45. The “Log2 fold change, secY (UTI89_C3746)” value (E. coli UTI89) was −1.36, the “Log2 fold change, serS (UTI89_C0908)” value (E. coli UTI89) was −2.29 and the “Log2 fold change, torY (UTI89_C2077)” value (E. coli UTI89) was 1.03. For the same substance, the “Log2 fold change, tpiA (UTI89_C4503)” value (E. coli UTI89) was −1.16, the “Log2 fold change, uspE (UTI89_C1604)” value (E. coli UTI89) was 1.28 and the “Log2 fold change, wbgM (UTI89_C2303)” value (E. coli UTI89) was 1.29. The “Log2 fold change, xdhC (UTI89_C3253)” value (E. coli UTI89) was −2.37, the “Log2 fold change, yaaY (UTI89_C0026)” value (E. coli UTI89) was 1.32 and the “Log2 fold change, yacH (UTI89_C0130)” value (E. coli UTI89) was 1.39. For the same substance, the “Log2 fold change, yaiS (UTI89_C2239)” value (E. coli UTI89) was 1.92, the “Log2 fold change, ybcS1 (UTI89_C1303)” value (E. coli UTI89) was 2.14 and the “Log2 fold change, ybfN (UTI89_C0686)” value (E. coli UTI89) was 1.22. For the same substance, the “Log2 fold change, ybjD (UTI89_C0880)” value (E. coli UTI89) was 1.31, the “Log2 fold change, ycaD (UTI89_C0972)” value (E. coli UTI89) was −1.66 and the “Log2 fold change, yciL (UTI89_C1537)” value (E. coli UTI89) was −1.27. The “Log2 fold change, ydeH (UTI89_C1760)” value (E. coli UTI89) was 4.38, the “Log2 fold change, ydiU (UTI89_C1899)” value (E. coli UTI89) was 1.27 and the “Log2 fold change, yecR (UTI89_C2105)” value (E. coli UTI89) was −2.29. The “Log2 fold change, yehE (UTI89_C2386)” value (E. coli UTI89) was −1.09, the “Log2 fold change, yfaE (UTI89_C2517)” value (E. coli UTI89) was −2.34 and the “Log2 fold change, yfbR (UTI89_C2573)” value (E. coli UTI89) was −1.89. The “Log2 fold change, yfcD (UTI89_C2583)” value (E. coli UTI89) was −1.88, the “Log2 fold change, yfeK (UTI89_C2753)” value (E. coli UTI89) was −1.41 and the “Log2 fold change, ygdI (UTI89_C3181)” value (E. coli UTI89) was 1.30. The “Log2 fold change, ygdI (UTI89_C3182)” value (E. coli UTI89) was 1.31, the “Log2 fold change, ygdR (UTI89_C3236)” value (E. coli UTI89) was 1.12 and the “Log2 fold change, yghU (UTI89_C3411)” value (E. coli UTI89) was −2.15. For the same substance, the “Log2 fold change, yhbQ (UTI89_C3582)” value (E. coli UTI89) was −1.70, the “Log2 fold change, yhbW (UTI89_C3587)” value (E. coli UTI89) was −1.14 and the “Log2 fold change, yhcO (UTI89_C3670)” value (E. coli UTI89) was 1.80. The “Log2 fold change, yhdL (UTI89_C3736)” value (E. coli UTI89) was 1.09, the “Log2 fold change, yjbK (UTI89_C4616)” value (E. coli UTI89) was 1.10 and the “Log2 fold change, yjcC (UTI89_C4647)” value (E. coli UTI89) was −1.25. The “Log2 fold change, yjeH (UTI89_C4739)” value (E. coli UTI89) was −1.27, the “Log2 fold change, yjeI (UTI89_C4742)” value (E. coli UTI89) was −1.76 and the “Log2 fold change, yjgF (ridA) (UTI89_C4848)” value (E. coli UTI89) was 2.24. For the same substance, the “Log2 fold change, ykgH (UTI89_C0333)” value (E. coli UTI89) was −2.93, the “Log2 fold change, ymdC (UTI89_C1169)” value (E. coli UTI89) was 1.04 and the “Log2 fold change, ymgA (UTI89_C1348)” value (E. coli UTI89) was 1.77. For the same substance, the “Log2 fold change, ynfJ (UTI89_C1779)” value (E. coli UTI89) was −1.82, the “Log2 fold change, ynhG (UTI89_C1870)” value (E. coli UTI89) was 1.34 and the “Log2 fold change, yqgD (UTI89_C3330)” value (E. coli UTI89) was 1.11. For the same substance, the “Log2 fold change, yrdA (UTI89_C3724)” value (E. coli UTI89) was 1.02, the “Log2 fold change, yrdE (UTI89_C3686)” value (E. coli UTI89) was −2.10 and the Overall biofilm biomass (V. cholerae biofilms) was “decreased the overall biomass by half”. For the same substance, the “Cell death in biofilm” value (V. cholerae biofilms; at 6 h) was 50%.
